The values below come from US4242261A, “Production of methylene-cycloamines” (A. H. Robins Company, Inc., priority 1979, dated 1980).

This experiment has as its system Tetrabenazine-Induced Ptosis. Put plainly: Blockade of Tetrabenazine-Induced Ptosis in Mice (antidepressant activity). It counts as in vivo, mice (ICR-DUB strain). The conditions noted are these: female mice; for ED50: Mus musculus. The protocol:
Thirty minutes later the presence or absence of complete eyelid closure (ptosis) is assessed in each animal. For compounds which produced blockage of ptosis in all animals, and ED50 value is obtained using a minimum of three geometrically spaced dosages with five mice/dose.

The mark [1] stands for this setting: ip, read-out: ED50 (95% confidence limits), IP, 30 min before tetrabenazine 32 mg/kg IP, Table 1 reference agents, probit analysis.
Setting [2] is: IP, 30 min before tetrabenazine 32 mg/kg IP, test compounds in text, read-out: ED50 (confidence limits).

Where “and” joins values, the source holds several entries; their conditions need not be identical. Equal entries are not always repeated. Where two headings read alike, the source gives them in different places.

In the case of `CN(C)CCCN1c2ccccc2CCc2ccccc21` [imipramine], the “ED50 (95% confidence limits)” value (IP, 30 min before tetrabenazine 32 mg/kg IP, Table 1 reference agents, probit analysis) is 0.4 (0.2-0.9) mg/kg and 0.5 (0.2-1.2) mg/kg. The ED50 under setting [1] was 0.3 mg/kg.

In the case of `CCOc1ccccc1OCC1CNCCO1` (centres unmarked) [viloxazine], the ED50 under setting [1] came out at 1.5 mg/kg.

Turning to `CC(C)N1CC(=C(c2ccccc2)c2ccccc2)C1.O=C(O)C(=O)O` [1-isopropyl-3-diphenylmethyleneazetidine oxalate], the ED50 under setting [2] is 2.18 mg/kg.

Turning to `CN1CC(=C(c2ccccc2)c2ccccc2)C1` [1-methyl-3-diphenylmethyleneazetidine], the ED50 under setting [2] was 1.48 mg/kg.
